Patent US9234038B2, “Compositions and method for the diagnosis, prevention and treatment of alzheimer's disease” (Seoul National University Industry Foundation, priority 2007, dated 2016)
Entries after “also recorded” stand apart in the source; their conditions may differ.

Columns and labels:
[1] = target: T1, FcγRIIb-CD40 chimera (UniProt P25942+Q63203); assay: FcγRIIb-CD40 chimera NF-κB luciferase assay of Aβ binding; assay type: cell-based, rat; conditions: Aβ 5 μM
T1 construct: an extracellular domain of FcγRIIb was genetically fused to CD40, consisting of a transmembrane domain and a cytoplasmic domain; human CD40 transmembrane and cytoplasmic domains (fusion partner); expressed in transfected cells; host or cells: NIH3T3
T1 sequence (Q63203+P25942 with tags, fused parts or gaps): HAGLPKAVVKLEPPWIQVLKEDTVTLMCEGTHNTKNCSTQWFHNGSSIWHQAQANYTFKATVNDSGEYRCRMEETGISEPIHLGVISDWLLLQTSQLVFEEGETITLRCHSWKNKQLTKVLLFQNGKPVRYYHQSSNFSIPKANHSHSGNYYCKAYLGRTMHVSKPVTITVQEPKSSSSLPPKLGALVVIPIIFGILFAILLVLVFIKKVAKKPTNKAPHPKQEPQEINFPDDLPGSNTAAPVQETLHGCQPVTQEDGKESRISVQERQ
Description: In order to investigate whether FcγRIIb binds to Aβ in a specific manner, an extracellular domain of FcγRIIb was genetically fused to CD40, consisting of a transmembrane domain and a cytoplasmic domain. The resulting FcγRIIb-CD40 fusion gene was expressed in NIH3T3 cells to increase NF-κ B activity, a signal transducer of CD40, when the fusion protein binds to Aβ. The chimeric gene was constructed as follows. A rat FcγRIIb extracellular region and human CD40 transmembrane and cytoplasmic domains were amplified by performing PCR with FcγRIIb-ED-5′-NheI primer (5′-[…]-3′: SEQ ID No. 15), FcγRIIb-ED-3′-HindIII primer (5′-[…]3′: SEQ ID No. 16), CD40-TM+cyto-5′ primer (5′-[…]-3′: SEQ ID No. 17), and CD40-TM+cyto-3′ primer (5′-[…]-3′: SEQ ID No. 18). PCR products were inserted into a pEGFP-N1 vector according to the same method as in Example 3. Cells were transfected with the chimeric gene, CD40, TNFRI, pcDNA3 (mock) along with an NF-kB-luciferase gene, and were exposed to 5 μM of Aβ or 20 ng/ml of TNF. NF-κ B activity was assessed, as described in Woo et al., FEBS Lett. 578, 239-244, 2004.
Based on the results of Example 10, a sequence spanning from the first to ninth residues from the N-terminus of Aβ, and a 95 to 101 sequence and a 107 to 114 sequence of mouse FcγRIIb, which are Aβ docking sites, were synthesized. Also, peptides, in which a residue involved in Aβ-cγRIIb binding in the above sequences was replaced with alanine, were synthesized. The peptides (wild type and mutant) have the sequences represented by SEQ ID Nos. 19 to 28 (panel a, FIG. 10). The synthesized peptides were individually allowed to react with a mixture of FcγRIIb-CD40 and Aβ (5 μM) or PBS. Then, luciferase activity was measured.

[2] = system: BALB/c mice; assay: Immunostaining of intraneuronal Aβ accumulation in mouse brain; assay type: in vivo; conditions: mice treated i.c.v. with Aβ plus peptide
Experimental: Brain specimens were prepared from the mice of Example 13 according to the same method as in Example 6. Sections were immunostained with primary antibodies, anti-Aβ antibody (Biosource, USA) plus an antibody to a marker of neurons, anti-neuron specific enolase (NSE) antibody (Axxora, Swiss) or anti-neuron specific nuclear protein (NeuN) antibody (Chemicon, USA), and with secondary antibodies, anti-mouse-FITC antibody (goat anti-mouse IgG conjugated to FITC (Santa Cruz Biotechnology, USA), anti-mouse-TRITC antibody (goat anti-mouse IgG conjugated to TRITC (Santa Cruz Biotechnology, USA), and anti-rabbit-goat-anti-mouse IgG conjugated to horseradish peroxidase (Santa Cruz Biotechnology, USA)).

[3] = system: BALB/c mice; assay: Memory test (Y-maze, passive avoidance) after i.c.v. Aβ; assay type: in vivo, mouse; conditions: i.c.v. injection of Aβ 410 pmole plus peptide, tests after one day
Experimental: Tg2576 mice were not used in this test because it takes a lot of time to breed the animals, and they are expensive. Instead, normal mice were used in this memory test because the same AD symptoms as in Tg2576 mice were observed when Aβ was injected into the brains of normal mice. Normal BALB/c mice were injected intracerebroventricularly (i.c.v.) with Aβ (1.855 μg/5 μl, 410 pmole) alone or in combination with a specific peptide. After one day, a Y-maze test and a passive avoidance test were performed. Memory was assessed as described in Yan et al., Br. J. Pharmacol, 133:89-96, 2001.

[4] = target: T2, Aβ1-42 (Homo sapiens, UniProt P05067); assay: In vitro binding assay (immunoprecipitation, Western blot); conditions: 5 μM Aβ, 20 μg FcγRIIb-ED, 37° C. 3 hrs
T2 construct: subjected to Western blotting to assess the association between FcγRII and Aβ1-42; purchased Sigma
T2 sequence (P05067 672-713): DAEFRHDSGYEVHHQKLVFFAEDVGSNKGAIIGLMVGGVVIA
Experimental: 5 μM of Aβ was mixed with 20 μg of FcγRIIb-ED or 20 μg of BSA in vitro, and was incubated at 37° C. for 3 hrs. The reaction mixture was incubated with anti-FcγRIIb polyclonal antibody or anti-GST antibody for 2 hrs, and then with Protein G for 3 hrs (binding solution: 50 mM Tris-HCl, pH 7.4, 1 mM DTT, 0.5 mM EDTA, 0.01% Triton X-100, 0.5 mg/ml bovine serum albumin, 10% (v/v) glycerol, protease inhibitors cocktail, several concentrations of NP-40). The beads were washed three times and subjected to Western blotting to assess the association between FcγRII and Aβ1-42. Western blotting was carried out with K9.361 antibody and anti-Aβ antibody (primary antibody: 71-5800 (Zymed, USA); secondary antibody: goat anti-rabbit IgG conjugated to horseradish peroxidase (Santa Cruz Biotechnology, USA).

[5] = system: FcγRIIb; assay: Western blot of FcγRIIb expression in Aβ-exposed B103 cells treated with FcγRIIb ED; assay type: cell-based, rat; conditions: 5 μM Aβ 48 hrs; 100 μg FcγRIIb ED
Experimental: (§1) An FcγRIIb extracellular domain (ED) was purified as described in Sondermann et al., EMBO J, 18:1095-1103, 1999. Neuronal B103 cells or primary-cultured neuronal cells were exposed to 5 μM of Aβ for 48 hrs. Then, cells were treated or not treated with 100 μg of the purified FcγRIIb ED, or treated or not treated with 100 μg of bovine serum albumin (BSA). B103 cells were subjected to Western blotting, which was performed with anti-FcγRIIb antibody as described in Example 2-2. The primary neuronal culture was evaluated for cell survival as described in Example 3.

[6] = system: primary-cultured neuronal cells; assay: Cell survival of Aβ-exposed primary neuronal culture treated with FcγRIIb ED; assay type: cell-based, rat; conditions: 5 μM Aβ 48 hrs, 100 μg FcγRIIb ED, compared to BSA
Experimental: as §1

[7] = system: B103 cells; assay: Immunostaining of intracellular Aβ accumulation in siRNA-transfected B103 cells; assay type: cell-based, rat; conditions: 100 nM Aβ, 12 hrs
Experimental: psiFcγRIIb #1 cells or psiRAGE #1 cells, prepared in Example 4, were exposed to 100 nM of Aβ or PBS for 12 hrs, and immunostained with anti-Aβ antibody (4G8; Signet, USA) according to the same method as in Example 2-3.

[8] = system: B103 cells; assay: Viability of siRNA-transfected B103 cells exposed to Aβ; assay type: cell-based, rat; conditions: 5 μM Aβ, 48 hrs
Description: Small interfering RNAs (siRNAs) inhibiting the expression of FcγIIb and receptors for advanced glycation end-product (RAGE), which is known as a cell surface receptor of Aβ, were constructed, and their effects on cell death were compared to each other. A siRNA duplex was formed by hybridizing sense and antisense complementary RNA oligonucleotides, listed in Table 1, below, and was inserted into pSuper-neo (Oligoengine, USA). The siRNA expression vectors thus constructed were individually transfected into B103 cells using lipofectamine (Invitrogen, USA) according to the manufacturer's protocol. The resulting transfected cells were designated “pSuper-neo”, “psiFcγRIIb#1”, “psiFcγRIIb#2”, “psiRAGE#1”, and “psiRAGE#2”. Then, transfected cells were subjected to Western blot analysis. […] Then, the transformed B103 cells were exposed to 5 μM of Aβ or PBS for 48 hrs, and their viability was evaluated. Cell survival was assessed through trypan blue exclusion, Hoechst staining (Sigma, USA), and Annexin V labeling (Promega, USA). The survival of effector cells and cells introduced with pEGFP (Clontech, USA) was determined by observing the morphology of GFP-positive cells under a fluorescence microscope (Leica DMRBE, Germany). Cells were determined to be dead when the cell morphology changed to a spherical shape and the cell membrane was disrupted or destroyed.

## peptide #1: synthesized peptide among SEQ ID Nos. 19 to 28; corresponds to a binding region in Aβ or FcγRIIb; probably SEQ ID No. 19 (DAEFRHDSG; Synthetic peptide #1 for interaction inhibitor)
[1]; listed as #1
  NF-κB activation induced through binding of Aβ to FcγRIIb-CD40 (luciferase activity): strongly inhibited; also recorded: effectively inhibited
[2]; listed as #1
  intraneuronal Aβ accumulation in brain: disappeared; also recorded: completely inhibited
[3]; listed as #1
  Aβ-induced memory decline: strongly reduce; also recorded: restore

## peptide #7: mutant peptide having an alanine substitution for a residue responsible for Aβ-FcγRIIb binding; among SEQ ID Nos. 19 to 28 (DAEARHASG; Synthetic peptide #7 for interaction inhibitor)
[1]
  NF-κB activation induced through binding of Aβ to FcγRIIb-CD40 (luciferase activity): sharp decrease in inhibitory effects
[2]
  intraneuronal Aβ accumulation in brain: strong intraneuronal Aβ staining
[3]
  Aβ-induced memory decline: failed to reverse memory decline

## FcγRIIb ED: purified FcγRIIb extracellular domain (SEQ ID No. 33), purified as described in Sondermann et al. 1999
[4]
  binding of Aβ to FcγRIIb-ED: directly bind
[5]
  Aβ-increased expression of FcγRIIb: suppressed
[6]
  Aβ signaling / relative cell viability: completely inhibit
[6]; listed as FcγRIIb extracellular domain
  Aβ signaling / relative cell viability: increased to that of cells not exposed to Aβ; also recorded: increase the relative viability of neuronal cells exposed to Aβ to the same level as cells not exposed to Aβ

## 9: synthesized peptide among SEQ ID Nos. 19 to 28; corresponds to a binding region in Aβ or FcγRIIb; probably SEQ ID No. 27 (RCHSWRNK; Synthetic peptide #9 for interaction inhibitor) [compound 9]
[1]
  NF-κB activation induced through binding of Aβ to FcγRIIb-CD40 (luciferase activity): strongly inhibited; also recorded: effectively inhibited
[3]
  Aβ-induced memory decline: strongly reduce; also recorded: restore

B1: siRNA against RAGE: siRNA against RAGE, oligomers SEQ ID Nos. 13 and 14, inserted into pSuper-neo (nucleic acid)
sense: GATCCCCGCTCCGGATGAAGAATCAGTTCAAGAGACTGATTCTTCATCCGGAGCTTTTTGGAAA
antisense: AGCTTTTCCAAAAAGCTCCGGATGAAGAATCAGTCTCTTGAACTGATTCTTCATCCGGAGCGGAGTCGGG
modifications: expressed or natural sequence; the letters are possibly those of the target site
[7]
  intracellular Aβ accumulation: maintained
[8]
  Aβ-induced cell death / survival: low survival
